Data: the NIST ThermoML archive (doi:10.1016/j.jct.2010.10.016)
± gives the expanded uncertainty stated by the source.

Experiment: relative permittivity at various frequencies (dimensionless); xn = mol fraction of the nth substance listed
Details: 101 kPa, Liquid, Frequency=3 MHz, AC method

CCCCOCCO [2-butoxyethan-1-ol] + C[N+](=O)[O-]
relative permittivity (293.15 K, x2 = 0): 9.78 ± 0.04 | relative permittivity (293.15 K, x2 = 0.05): 12.57 ± 0.05 | relative permittivity (293.15 K, x2 = 0.0999): 14.98 ± 0.05 | relative permittivity (293.15 K, x2 = 0.2): 19.71 ± 0.05 | relative permittivity (293.15 K, x2 = 0.3): 24.36 ± 0.06 | relative permittivity (293.15 K, x2 = 0.4): 28.77 ± 0.06 | relative permittivity (293.15 K, x2 = 0.5): 32.64 ± 0.06 | relative permittivity (293.15 K, x2 = 0.6): 35.72 ± 0.06 | relative permittivity (293.15 K, x2 = 0.7001): 38.28 ± 0.06 | relative permittivity (293.15 K, x2 = 0.8): 40.28 ± 0.05 | relative permittivity (293.15 K, x2 = 0.9005): 40.93 ± 0.05 | relative permittivity (293.15 K, x2 = 0.95): 39.91 ± 0.05 | relative permittivity (298.15 K, x2 = 0): 9.35 ± 0.04 | relative permittivity (298.15 K, x2 = 0.05): 11.95 ± 0.05 | relative permittivity (298.15 K, x2 = 0.0999): 14.28 ± 0.05 | relative permittivity (298.15 K, x2 = 0.2): 18.87 ± 0.05 | relative permittivity (298.15 K, x2 = 0.3): 23.34 ± 0.06 | relative permittivity (298.15 K, x2 = 0.4): 27.63 ± 0.06 | relative permittivity (298.15 K, x2 = 0.5): 31.38 ± 0.07 | relative permittivity (298.15 K, x2 = 0.6): 34.44 ± 0.07 | relative permittivity (298.15 K, x2 = 0.7001): 36.93 ± 0.07 | relative permittivity (298.15 K, x2 = 0.8): 38.93 ± 0.07 | relative permittivity (298.15 K, x2 = 0.9005): 39.67 ± 0.07 | relative permittivity (298.15 K, x2 = 0.95): 38.78 ± 0.07 | relative permittivity (303.15 K, x2 = 0): 8.88 ± 0.04 | relative permittivity (303.15 K, x2 = 0.05): 11.28 ± 0.05 | relative permittivity (303.15 K, x2 = 0.0999): 13.54 ± 0.05 | relative permittivity (303.15 K, x2 = 0.2): 18 ± 0.05 | relative permittivity (303.15 K, x2 = 0.3): 22.34 ± 0.06 | relative permittivity (303.15 K, x2 = 0.4): 26.37 ± 0.06 | relative permittivity (303.15 K, x2 = 0.5): 29.98 ± 0.07 | relative permittivity (303.15 K, x2 = 0.6): 32.99 ± 0.07 | relative permittivity (303.15 K, x2 = 0.7001): 35.47 ± 0.07 | relative permittivity (303.15 K, x2 = 0.8): 37.36 ± 0.07 | relative permittivity (303.15 K, x2 = 0.9005): 37.93 ± 0.07 | relative permittivity (303.15 K, x2 = 0.95): 37.3 ± 0.07 | relative permittivity (308.15 K, x2 = 0): 8.39 ± 0.04 | relative permittivity (308.15 K, x2 = 0.05): 10.61 ± 0.05 | relative permittivity (308.15 K, x2 = 0.0999): 12.78 ± 0.05 | relative permittivity (308.15 K, x2 = 0.2): 17.16 ± 0.05 | relative permittivity (308.15 K, x2 = 0.3): 21.34 ± 0.06 | relative permittivity (308.15 K, x2 = 0.4): 25.27 ± 0.06 | relative permittivity (308.15 K, x2 = 0.5): 28.79 ± 0.06 | relative permittivity (308.15 K, x2 = 0.6): 31.85 ± 0.06 | relative permittivity (308.15 K, x2 = 0.7001): 34.31 ± 0.06 | relative permittivity (308.15 K, x2 = 0.8): 36 ± 0.07 | relative permittivity (308.15 K, x2 = 0.9005): 36.51 ± 0.07 | relative permittivity (308.15 K, x2 = 0.95): 36.07 ± 0.06 | relative permittivity (313.15 K, x2 = 0): 7.91 ± 0.04 | relative permittivity (313.15 K, x2 = 0.05): 9.96 ± 0.05 | relative permittivity (313.15 K, x2 = 0.0999): 12.04 ± 0.05 | relative permittivity (313.15 K, x2 = 0.2): 16.23 ± 0.06 | relative permittivity (313.15 K, x2 = 0.3): 20.28 ± 0.06 | relative permittivity (313.15 K, x2 = 0.4): 24.13 ± 0.06 | relative permittivity (313.15 K, x2 = 0.5): 27.65 ± 0.07 | relative permittivity (313.15 K, x2 = 0.6): 30.75 ± 0.07 | relative permittivity (313.15 K, x2 = 0.7001): 33.16 ± 0.07 | relative permittivity (313.15 K, x2 = 0.8): 34.68 ± 0.08 | relative permittivity (313.15 K, x2 = 0.9005): 35.07 ± 0.08 | relative permittivity (313.15 K, x2 = 0.95): 34.84 ± 0.07

C[N+](=O)[O-] [nitromethane] + COCCO
relative permittivity (293.15 K, x1 = 0.05): 19.49 ± 0.05 | relative permittivity (293.15 K, x1 = 0.0998): 21.49 ± 0.05 | relative permittivity (293.15 K, x1 = 0.2): 25.34 ± 0.05 | relative permittivity (293.15 K, x1 = 0.3): 29.02 ± 0.05 | relative permittivity (293.15 K, x1 = 0.4): 32.43 ± 0.05 | relative permittivity (293.15 K, x1 = 0.5): 35.32 ± 0.05 | relative permittivity (293.15 K, x1 = 0.6): 37.67 ± 0.06 | relative permittivity (293.15 K, x1 = 0.7): 39.53 ± 0.06 | relative permittivity (293.15 K, x1 = 0.8002): 40.88 ± 0.05 | relative permittivity (293.15 K, x1 = 0.8999): 40.91 ± 0.06 | relative permittivity (293.15 K, x1 = 0.9503): 39.82 ± 0.05 | relative permittivity (293.15 K, x1 = 1): 37.31 ± 0.05 | relative permittivity (298.15 K, x1 = 0.05): 18.95 ± 0.05 | relative permittivity (298.15 K, x1 = 0.0998): 20.81 ± 0.05 | relative permittivity (298.15 K, x1 = 0.2): 24.57 ± 0.05 | relative permittivity (298.15 K, x1 = 0.3): 28.08 ± 0.05 | relative permittivity (298.15 K, x1 = 0.4): 31.42 ± 0.06 | relative permittivity (298.15 K, x1 = 0.5): 34.24 ± 0.06 | relative permittivity (298.15 K, x1 = 0.6): 36.51 ± 0.06 | relative permittivity (298.15 K, x1 = 0.7): 38.31 ± 0.06 | relative permittivity (298.15 K, x1 = 0.8002): 39.53 ± 0.06 | relative permittivity (298.15 K, x1 = 0.8999): 39.5 ± 0.07 | relative permittivity (298.15 K, x1 = 0.9503): 38.54 ± 0.07 | relative permittivity (298.15 K, x1 = 1): 36.52 ± 0.05 | relative permittivity (303.15 K, x1 = 0.05): 18.48 ± 0.05 | relative permittivity (303.15 K, x1 = 0.0998): 20.26 ± 0.05 | relative permittivity (303.15 K, x1 = 0.2): 23.89 ± 0.05 | relative permittivity (303.15 K, x1 = 0.3): 27.27 ± 0.05 | relative permittivity (303.15 K, x1 = 0.4): 30.47 ± 0.06 | relative permittivity (303.15 K, x1 = 0.5): 33.22 ± 0.06 | relative permittivity (303.15 K, x1 = 0.6): 35.49 ± 0.06 | relative permittivity (303.15 K, x1 = 0.7): 37.26 ± 0.06 | relative permittivity (303.15 K, x1 = 0.8002): 38.38 ± 0.06 | relative permittivity (303.15 K, x1 = 0.8999): 38.23 ± 0.07 | relative permittivity (303.15 K, x1 = 0.9503): 37.28 ± 0.06 | relative permittivity (303.15 K, x1 = 1): 35.66 ± 0.05 | relative permittivity (308.15 K, x1 = 0.05): 17.81 ± 0.05 | relative permittivity (308.15 K, x1 = 0.0998): 19.57 ± 0.05 | relative permittivity (308.15 K, x1 = 0.2): 23.11 ± 0.05 | relative permittivity (308.15 K, x1 = 0.3): 26.43 ± 0.06 | relative permittivity (308.15 K, x1 = 0.4): 29.45 ± 0.06 | relative permittivity (308.15 K, x1 = 0.5): 32.16 ± 0.06 | relative permittivity (308.15 K, x1 = 0.6): 34.47 ± 0.06 | relative permittivity (308.15 K, x1 = 0.7): 36.18 ± 0.06 | relative permittivity (308.15 K, x1 = 0.8002): 37.08 ± 0.07 | relative permittivity (308.15 K, x1 = 0.8999): 36.88 ± 0.07 | relative permittivity (308.15 K, x1 = 0.9503): 36.1 ± 0.07 | relative permittivity (308.15 K, x1 = 1): 34.92 ± 0.05 | relative permittivity (313.15 K, x1 = 0.05): 17.21 ± 0.05 | relative permittivity (313.15 K, x1 = 0.0998): 18.85 ± 0.05 | relative permittivity (313.15 K, x1 = 0.2): 22.12 ± 0.06 | relative permittivity (313.15 K, x1 = 0.3): 25.3 ± 0.06 | relative permittivity (313.15 K, x1 = 0.4): 28.29 ± 0.06 | relative permittivity (313.15 K, x1 = 0.5): 31.09 ± 0.06 | relative permittivity (313.15 K, x1 = 0.6): 33.47 ± 0.06 | relative permittivity (313.15 K, x1 = 0.7): 35.12 ± 0.07 | relative permittivity (313.15 K, x1 = 0.8002): 35.78 ± 0.08 | relative permittivity (313.15 K, x1 = 0.8999): 35.27 ± 0.08 | relative permittivity (313.15 K, x1 = 0.9503): 34.7 ± 0.07 | relative permittivity (313.15 K, x1 = 1): 34.09 ± 0.05
